From patent US5741781A, “Mercaptoalkanoyldipeptide compounds” (Adir et Compagnie, priority 1995, dated 1998)

Experiments:
[1] = biological target: neutral endopeptidase (NEP) (Homo sapiens, UniProt P08473); test: Inhibitory effect in vitro on neutral endopeptidase, [3H]-D-Ala2-Leu-encephalin as substrate; format: biochemical; details: in vitro
[2] = biological target: peptidyldipeptidase A (ACE) (Homo sapiens, UniProt P12821); test: Inhibitory effect in vitro on peptidyldipeptidase A, Z-Phe-His-Leu as substrate; format: biochemical
Procedure: The inhibitory properties of the compounds of the invention are measured using [^3 H]-D-Ala^2 -Leu-encephalin as substrate for neutral endopeptidase, in accordance with the protocol described by Llorens et al. (Biochem. Biophys. Res. Commun., 96, (1980), 1710 sqq), and Z-Phe-His-Leu as substrate in the case of peptidyldipeptidase A in accordance with the protocol described in Biochem. Biophys. Acta, 206, (1970), 136-142.

peptidyldipeptidase A (ACE), sequence (P12821 30-1306, species assumed): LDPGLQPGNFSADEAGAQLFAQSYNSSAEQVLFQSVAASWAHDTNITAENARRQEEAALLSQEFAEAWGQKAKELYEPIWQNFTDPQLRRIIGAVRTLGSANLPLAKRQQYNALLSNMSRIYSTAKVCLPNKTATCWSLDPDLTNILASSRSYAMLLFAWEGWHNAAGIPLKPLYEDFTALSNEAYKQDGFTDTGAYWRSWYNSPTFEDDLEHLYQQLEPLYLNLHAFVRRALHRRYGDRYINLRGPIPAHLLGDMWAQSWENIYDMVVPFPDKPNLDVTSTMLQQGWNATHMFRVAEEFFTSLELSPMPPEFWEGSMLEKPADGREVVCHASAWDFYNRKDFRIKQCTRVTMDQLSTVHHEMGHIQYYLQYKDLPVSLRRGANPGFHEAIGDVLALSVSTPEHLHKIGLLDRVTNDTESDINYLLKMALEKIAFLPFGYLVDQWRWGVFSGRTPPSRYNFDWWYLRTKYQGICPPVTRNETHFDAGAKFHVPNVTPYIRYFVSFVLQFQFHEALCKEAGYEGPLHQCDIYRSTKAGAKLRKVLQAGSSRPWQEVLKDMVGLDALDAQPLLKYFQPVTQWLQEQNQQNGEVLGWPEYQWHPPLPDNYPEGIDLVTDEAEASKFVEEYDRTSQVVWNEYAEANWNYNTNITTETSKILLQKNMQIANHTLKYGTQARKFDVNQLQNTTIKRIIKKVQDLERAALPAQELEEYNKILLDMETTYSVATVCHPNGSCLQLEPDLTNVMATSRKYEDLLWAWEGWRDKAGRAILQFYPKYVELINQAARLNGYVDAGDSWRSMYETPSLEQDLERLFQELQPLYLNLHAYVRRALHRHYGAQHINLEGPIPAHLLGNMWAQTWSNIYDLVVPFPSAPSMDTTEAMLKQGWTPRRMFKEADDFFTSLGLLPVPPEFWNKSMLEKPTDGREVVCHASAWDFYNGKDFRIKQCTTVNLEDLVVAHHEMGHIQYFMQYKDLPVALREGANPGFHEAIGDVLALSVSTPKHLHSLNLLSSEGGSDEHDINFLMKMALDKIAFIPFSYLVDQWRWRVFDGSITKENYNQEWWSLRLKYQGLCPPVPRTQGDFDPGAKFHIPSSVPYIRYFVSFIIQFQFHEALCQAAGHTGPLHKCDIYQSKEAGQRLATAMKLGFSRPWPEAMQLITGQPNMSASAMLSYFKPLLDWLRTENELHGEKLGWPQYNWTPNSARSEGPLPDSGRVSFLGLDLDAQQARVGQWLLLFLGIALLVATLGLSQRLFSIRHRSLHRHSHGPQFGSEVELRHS
neutral endopeptidase (NEP), sequence (P08473 whole entry, species assumed): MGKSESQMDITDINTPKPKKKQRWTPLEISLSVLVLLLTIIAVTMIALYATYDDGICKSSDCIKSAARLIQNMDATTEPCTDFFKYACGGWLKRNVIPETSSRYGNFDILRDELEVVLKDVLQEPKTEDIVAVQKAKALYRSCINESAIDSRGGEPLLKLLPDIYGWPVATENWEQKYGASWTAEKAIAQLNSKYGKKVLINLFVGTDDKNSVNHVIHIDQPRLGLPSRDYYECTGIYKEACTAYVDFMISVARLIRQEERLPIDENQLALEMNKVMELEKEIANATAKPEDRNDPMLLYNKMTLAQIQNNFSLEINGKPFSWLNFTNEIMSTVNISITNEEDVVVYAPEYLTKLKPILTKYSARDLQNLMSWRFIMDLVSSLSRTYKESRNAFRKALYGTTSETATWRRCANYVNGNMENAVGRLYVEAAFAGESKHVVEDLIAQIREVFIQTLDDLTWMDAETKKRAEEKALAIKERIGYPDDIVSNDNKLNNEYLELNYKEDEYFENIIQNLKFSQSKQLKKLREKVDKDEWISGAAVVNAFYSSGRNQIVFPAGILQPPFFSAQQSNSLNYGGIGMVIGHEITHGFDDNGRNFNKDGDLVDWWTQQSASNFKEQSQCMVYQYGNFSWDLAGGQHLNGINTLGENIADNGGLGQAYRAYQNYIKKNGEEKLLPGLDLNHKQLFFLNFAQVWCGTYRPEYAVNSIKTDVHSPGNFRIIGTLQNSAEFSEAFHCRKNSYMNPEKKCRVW

IC50 [1] [nM]	IC50 [2] [nM]	SMILES
1.6 ± 0.3	0.55 ± 0.05	O=C(NCC(=O)N1C(c2ccccc2)CC[C@H]1C(=O)O)C(S)Cc1ccccc1 (stereo partly drawn) [Example 3, N-[N-(2-Mercapto-3-phenylpropanoyl)glycyl]-5-phenylproline]
1.1 ± 0.3	0.5 ± 0.1	O=C(NCC(=O)N1C(c2ccccc2O)CC[C@H]1C(=O)O)C(S)Cc1ccccc1 (stereo partly drawn) [Example 5, N-[N-(2-Mercapto-3-phenylpropanoyl)glycyl]-5-(ortho-hydroxyphenyl)-proline]
4.3 ± 0.3	0.35 ± 0.05	O=C(NCC(=O)N1C(c2ccccc2O)CC[C@H]1C(=O)O)C(S)Cc1ccc(O)cc1 (stereo partly drawn) [Example 7, N-[N-[2-Mercapto-3-(para-hydroxyphenyl)propanoyl]glycyl]-5-(ortho-hydroxyphenyl)proline]
3.4 ± 0.8	4.2 ± 0.4	O=C(NCC(=O)N1C(c2ccccc2)CC[C@H]1C(=O)O)C(S)Cc1ccc(O)cc1 (stereo partly drawn) [Example 10, N-[N-[2-Mercapto-3-(para-hydroxyphenyl)propanoyl]glycyl]-5-phenylproline]
1.8 ± 0.4	3.5 ± 0.5	Nc1ccc(CC(S)C(=O)NCC(=O)N2C(c3ccccc3)CC[C@H]2C(=O)O)cc1 (stereo partly drawn) [Example 14, N-[N-[2-Mercapto-3-(para-aminophenyl)propanoyl]glycyl]-5-phenylproline]
26 ± 3	23 ± 3	Nc1ccc(C2CC[C@@H](C(=O)O)N2C(=O)CNC(=O)C(S)Cc2ccc(O)cc2)cc1 (stereo partly drawn) [Example 16, N-[N-[2-Mercapto-3-(para-hydroxyphenyl)propanoyl]glycyl]-5-(para-aminophenyl)proline]
1.6 ± 0.3	0.7 ± 0.2	O=C(NCC(=O)N1C(c2cccc(O)c2)CC[C@H]1C(=O)O)C(S)Cc1ccc(O)cc1 (stereo partly drawn) [Example 18, N-[N-[2-Mercapto-3-(para-hydroxyphenyl)propanoyl]glycyl]-5-(metahydroxyphenyl)proline]
2.4 ± 0.8	1.4 ± 0.7	O=C(NCC(=O)N1C(c2cccc(O)c2)CC[C@H]1C(=O)O)C(S)Cc1ccccc1 (stereo partly drawn) [Example 20, N-[N-(2-Mercapto-3-phenylpropanoyl)glycyl]-5-(meta-hydroxyphenyl)proline]
6 ± 1	0.45 ± 0.05	O=C(NCC(=O)N1C(c2ccc(O)cc2)CC[C@H]1C(=O)O)C(S)Cc1ccc(O)cc1 (stereo partly drawn) [Example 22, N-[N-[2-Mercapto-3-(para-hydroxyphenyl)propanoyl]glycyl]-5,(para-hydroxyphenyl)proline]
1.2 ± 0.4	0.9 ± 0.06	O=C(NCC(=O)N1C(c2ccccc2O)CC[C@H]1C(=O)O)C(S)Cc1ccc(Cl)cc1 (stereo partly drawn) [Example 24]
2.3 ± 0.3	0.4 ± 0.05	COc1ccc(CC(S)C(=O)NCC(=O)N2C(c3ccccc3O)CC[C@H]2C(=O)O)cc1 (stereo partly drawn) [Example 26, N-[N-[2-Mercapto-3-(para-methoxyphenyl)propanoyl]glycyl]-5-(orthohydroxyphenyl)proline]
2.5 ± 0.6	2.2 ± 0.2	COc1ccc(CC(S)C(=O)NCC(=O)N2C(c3ccccc3OC)CC[C@H]2C(=O)O)cc1 (stereo partly drawn) [Example 28, N-[N-[2-Mercapto-3-(para-methoxyphenyl)propanoyl]glycyl]-5-(orthomethoxyphenyl)proline]
10 ± 2	8.2 ± 0.5	Cc1ccc(C2CC[C@@H](C(=O)O)N2C(=O)CNC(=O)C(S)Cc2ccccc2)cc1 (stereo partly drawn) [Example 30, N-[N-(2-Mercapto-3-phenylpropanoyl)glycyl]-5-(para-methylphenyl)proline]
5 ± 0.5	3.2 ± 0.4	Cc1ccc(C2CC[C@@H](C(=O)O)N2C(=O)CNC(=O)C(S)Cc2ccc(O)cc2)cc1 (stereo partly drawn) [Example 32, N-[N-[2-Mercapto-3-(para-hydroxyphenyl)propanoyl]glycyl]-5-(para-methylphenyl)proline]
3.1 ± 0.3	5.2 ± 0.5	Cc1ccccc1C1CC[C@@H](C(=O)O)N1C(=O)CNC(=O)C(S)Cc1ccc(O)cc1 (stereo partly drawn) [Example 34, N-[N-[2-Mercapto-3-(para-hydroxyphenyl)propanoyl]glycyl]-5-(ortho-methylphenyl)proline]
